Laboratory results published in patent US9682151B2, “Peptides whose uptake in cells is controllable” (The Regents of the University of California, priority 2009, dated 2017).

How the values were obtained:
Format in all cases: in vivo, mice
[1] = Fluorescence uptake of Cy5-labeled selective transport molecules in tumor and muscle (Table 2), MDA-MB 435; conditions: nude, mouse, in vivo, iv; MDA-MB 435 xenograft
Method: (§1) Xenografts with HT1080 human fibroscarcoma cells (ATCC) or MDA-MB 435 human melanoma cells were used. Allografts were generated in the lab with 8119 murine mammary adenocarcinoma cells and B16F10 murine melanoma cells. 1×10^6 cells (either 8119 or BI6F10) were injected intramuscularly into the left flank of albino C57BL/6 mice. Tumor allografts were monitored until tumor size was approximately 1 cm in largest diameter (approximately 7-10 days).
(§2) Briefly 30 mg tissues was homogenized and heated in SDS buffer, frozen, and then imaged by fluorescence. SUV ((moles/g tissue)/(moles injected/weight of the animal)) values were determined by comparing experimental fluorescence to standard curves derived by peptide spiked tissue processed similarly.
(§3) To test whether selective transport molecules are taken up differentially between tumor and normal tissue, allografts derived from spontaneous mammary adenocarcinoma tumors in transgenic mice (line 8119, MMTV-PyMT) and the murine melanoma cell line B16F10 transplanted into immune competent mice, and human cancer cell lines (MDA-MB 435 melanoma and HT1080 fibrosarcoma) xenografted into nude mice, were imaged after intravenous injection of Cy5-labeled selective transport molecules and sufficient time for elimination of uncleaved selective transport molecules. Cy5 was chosen as a labeling marker because of its reduced tissue absorption in the near infrared range.

[2] = test system: MDA-MB 435 human melanoma cells; assay: as above
Method: as §1, §2, §3

[3] = Fluorescence uptake of Cy5-labeled selective transport molecules in tumor and muscle (Table 2), HT1080; conditions: nude, mouse, in vivo, iv; HT1080 xenograft
Method: as §1, §2, §3

[4] = test system: HT1080 human fibroscarcoma cells; assay: as above; conditions: HT1080 xenograft
Method: as §1, §2, §3

[5] = Fluorescence uptake of Cy5-labeled selective transport molecules in tumor and muscle (Table 2), 8119; conditions: albino C57BL/6, mouse, in vivo, iv; 8119 allograft
Method: as §1, §2, §3

[6] = test system: 8119 murine mammary adenocarcinoma cells; assay: as above; conditions: 8119 allograft
Method: as §1, §2, §3

[7] = Fluorescence uptake of Cy5-labeled selective transport molecules in tumor and muscle (Table 2), B16F10; conditions: albino C57BL/6, mouse, in vivo, iv; B16F10 allograft
Method: as §1, §2, §3

[8] = test system: B16F10 murine melanoma cells; assay: as above; conditions: B16F10 allograft
Method: as §1, §2, §3

HT1080 cells = assay: Residual tumor cell quantification with Alu PCR after guided surgery; conditions: free 10 nmoles 6 hours, dendrimer 2 nmoles 48 hours prior to surgery
Method: Animals used for quantification of residual tumor cells after surgery were performed on xenograft of HT1080 cells generated as detailed above Animals were anesthetized with 80 mg/kg ketamine and 40 mg/kg midazolam. Following skin incision and retraction, tumors were removed with microsurgical technique using a dissecting microscope (Zeiss, Lumar).
Fluorescence guidance of tumor excision was performed as detailed above for the survival studies with GFP, free selective transport molecule (10 nmoles; 6 hours prior to surgery) or dendrimer selective transport molecule (2 nmoles; 48 hours prior to surgery). For animals in the GFP guidance arm, the surgical field was assessed through the dissecting scope with excitation and emission parameters for GFP. […] Following completion of tumor resection, the remaining surgical bed was resected with at least a 5 mm margin in all contiguous dimensions and analyzed for Alu sequences. Alu PCR analysis of the remaining surgical bed for residual tumor cells were performed. […]
To quantify the efficacy of tumor excision with selective transport molecule guidance, we used Alu PCR to measure residual human (cancer) cells remaining in the tumor bed after surgical excision.

SMILES: CCN1C(=CC=CC=CC2=[N+](CCCCCC(=O)NCCN3C(=O)CC(SC[C@@H](NC(=O)[C@@H](CCCNC(=N)N)NC(=O)[C@@H](CCCNC(=N)N)NC(=O)[C@@H](CCCNC(=N)N)NC(=O)[C@@H](CCCNC(=N)N)NC(=O)[C@@H](CCCNC(=N)N)NC(=O)[C@@H](CCCNC(=N)N)NC(=O)[C@@H](CCCNC(=N)N)NC(=O)[C@@H](CCCNC(=N)N)NC(=O)[C@@H](CCCNC(=N)N)NC(=O)CNC(=O)[C@H](C)NC(=O)[C@H](CSC)NC(=O)CNC(=O)[C@H](CC(C)C)NC(=O)[C@@H]4CCCN4C(=O)COCCNC(=O)[C@@H](CCC(=O)O)NC(=O)[C@@H](CCC(=O)O)NC(=O)[C@@H](CCC(=O)O)NC(=O)[C@@H](CCC(=O)O)NC(=O)[C@@H](CCC(=O)O)NC(=O)[C@@H](CCC(=O)O)NC(=O)[C@@H](CCC(=O)O)NC(=O)[C@@H](CCC(=O)O)NC(=O)CCC(=O)O)C(N)=O)C3=O)c3ccc(S(=O)(=O)[O-])cc3C2(C)C)C(C)(C)c2cc(S(=O)(=O)O)ccc21 (single isomer, unassigned) [Free Selective Transport Molecules]
- tissue to tissue ratio [1]: 2.45
- Ratio (tumor to muscle) ([2]; MDA-MB 435 xenograft): 2.45
- Muscle (fluorescence uptake) ([2]; MDA-MB 435 xenograft, Cy5 label, intravenous): 0.29 ± 0.068
- Tumor (fluorescence uptake) ([2]; MDA-MB 435 xenograft, Cy5 label, intravenous, SUV defined): 0.17 ± 0.05
- contrast between tumor and adjacent normal tissue ([2]; same figures as the MDA-MB 435 ratios of Table 2): 2.45 fold
- tissue to tissue ratio [3]: 3.82
- Ratio (tumor to muscle) [4]: 3.82
- Muscle (fluorescence uptake) ([4]; Cy5 label, intravenous): 0.11 ± 0.08
- Tumor (fluorescence uptake) ([4]; Cy5 label, intravenous): 0.42 ± 0.08
- tissue to tissue ratio [5]: 3.5
- Ratio (tumor to muscle) [6]: 3.5
- Muscle (fluorescence uptake) ([6]; Cy5 label, intravenous): 0.11 ± 0.06
- Tumor (fluorescence uptake) ([6]; Cy5 label, intravenous): 0.39 ± 0.12
- tissue to tissue ratio [7]: 2.4
- Ratio (tumor to muscle) [8]: 2.4
- Muscle (fluorescence uptake) ([8]; Cy5 label, intravenous): 0.10 ± 0.03
- Tumor (fluorescence uptake) ([8]; Cy5 label, intravenous): 0.24 ± 0.06
- log [DNA] (residual tumor DNA in surgical bed) (HT1080 cells): 4.67±0.33
